Assay [1] has as its target T1, D(2) dopamine receptor (Homo sapiens, UniProt P14416). Kind of assay: In vitro binding affinity at human cloned dopamine receptor D2 (short) stably expressed in CHO cells by [3H]spiperone displacement. In kind it is cell-based.
Assay [2] concerns the target T1, D(2) dopamine receptor. Kind of assay: In vitro binding affinity at human cloned dopamine receptor D2 (long) stably expressed in CHO cells by [3H]-Spiperone displacement. It is filed as cell-based.
The target of a further assay is D(3) dopamine receptor (Homo sapiens, UniProt P35462). Kind of assay: In vitro binding affinity at human cloned dopamine receptor D3 stably expressed in CHO cells by [3H]spiperone displacement. In kind it is cell-based.
Assay [3] addresses T2, D(4) dopamine receptor (Homo sapiens, UniProt P21917).
T2 sequence (P21917 whole entry): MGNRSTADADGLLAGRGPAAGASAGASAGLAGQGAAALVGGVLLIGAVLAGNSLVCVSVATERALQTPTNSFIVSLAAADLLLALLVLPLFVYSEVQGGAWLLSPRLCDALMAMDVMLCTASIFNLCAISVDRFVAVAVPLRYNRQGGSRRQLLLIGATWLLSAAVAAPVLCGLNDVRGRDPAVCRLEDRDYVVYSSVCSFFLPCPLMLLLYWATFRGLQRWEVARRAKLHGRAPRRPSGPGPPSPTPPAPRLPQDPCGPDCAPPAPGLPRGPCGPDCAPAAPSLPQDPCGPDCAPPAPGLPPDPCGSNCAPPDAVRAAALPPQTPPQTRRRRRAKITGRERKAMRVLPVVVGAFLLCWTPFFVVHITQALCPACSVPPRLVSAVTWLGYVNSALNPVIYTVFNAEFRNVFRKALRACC
Kind of assay: In vitro binding affinity at human cloned dopamine receptor D4 stably expressed in CHO cells by [3H]spiperone displacement. It is filed as cell-based.

The target of assay [4] is T3, D(4) dopamine receptor (Homo sapiens) (UniProt P21917).
T3 sequence (whole entry): T2 sequence (P21917 whole entry)
Kind of assay: Intrinsic activity as rate of incorporation of [3H]thymidine in human D4.2 receptor established in mitogenesis assay relative to quinpirole. In kind it is functional.

In assay [5] the target is T2, D(4) dopamine receptor. Kind of assay: Tested for the effective concentration against human D4.2 receptor in CHO 10001 cells established in mitogenesis assay. In kind it is functional, cell-based.
The nature of assay [6]: Compound was tested in vitro for its ability to compete with [3H]-ketanserin at 5-hydroxytryptamine 2 receptor in porcine brain homogenate. It is filed as tissue-based.
Assay [7] addresses T1, D(2) dopamine receptor. Kind of assay: Binding affinity of compound was tested in vitro for its ability to compete with [3H]spiperone radioligand at cloned human Dopamine receptor D2L stably expressed in CHO cells. In kind it is cell-based.

Molecules are shown by their SMILES. A value given as a limit tells only on which side of the number the result lay.

T1 sequence (P14416 whole entry): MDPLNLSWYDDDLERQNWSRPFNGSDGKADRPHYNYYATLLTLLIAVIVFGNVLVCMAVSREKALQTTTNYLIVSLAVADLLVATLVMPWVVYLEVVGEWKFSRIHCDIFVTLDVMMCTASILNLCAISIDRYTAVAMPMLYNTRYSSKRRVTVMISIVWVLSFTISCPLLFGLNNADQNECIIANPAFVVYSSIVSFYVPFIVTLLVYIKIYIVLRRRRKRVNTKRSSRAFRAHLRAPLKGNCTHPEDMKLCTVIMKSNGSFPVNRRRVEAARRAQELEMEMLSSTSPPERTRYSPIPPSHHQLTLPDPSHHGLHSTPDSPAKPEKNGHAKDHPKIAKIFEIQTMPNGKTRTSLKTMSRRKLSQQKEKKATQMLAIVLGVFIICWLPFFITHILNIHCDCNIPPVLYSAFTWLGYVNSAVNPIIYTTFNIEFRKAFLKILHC
Sequence of D(3) dopamine receptor (P35462 whole entry): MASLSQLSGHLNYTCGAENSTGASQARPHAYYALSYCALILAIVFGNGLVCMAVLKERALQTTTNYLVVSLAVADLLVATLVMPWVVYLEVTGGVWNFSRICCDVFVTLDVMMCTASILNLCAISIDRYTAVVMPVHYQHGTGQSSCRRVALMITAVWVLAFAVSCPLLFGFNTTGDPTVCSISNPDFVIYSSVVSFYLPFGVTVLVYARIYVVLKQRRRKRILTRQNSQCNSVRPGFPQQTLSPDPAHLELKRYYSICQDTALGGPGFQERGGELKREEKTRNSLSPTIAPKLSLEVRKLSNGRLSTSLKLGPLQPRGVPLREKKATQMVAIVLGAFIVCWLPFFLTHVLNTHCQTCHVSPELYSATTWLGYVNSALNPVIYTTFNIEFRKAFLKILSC

Turning to `Cc1cccn2ncc(CN3CCN(c4ccc(Cl)cc4)CC3)c12`, the Ki is 12 µM on D(2) dopamine receptor [1], 13 µM at D(2) dopamine receptor [2] and 9.4 µM on D(3) dopamine receptor.

Take `Cc1nn2c(-c3ccccc3)cccc2c1CN1CCN(c2ccc(Cl)cc2)CC1`: the Ki at D(4) dopamine receptor [3] was 0.037 µM; at D(2) dopamine receptor [1] it was 24 µM; on D(2) dopamine receptor [2], 28 µM; on D(3) dopamine receptor, 3.1 µM.

On to `C#Cc1cccc2c(CN3CCN(c4ccc(Cl)cc4)CC3)cnn12`, for which the Ki at D(2) dopamine receptor [1] was found to be 6.2 µM; on D(2) dopamine receptor [2] it was 3.7 µM; at D(3) dopamine receptor, 4.6 µM.

Turning to `N#Cc1cccc2c(CN3CCN(c4ccc(Cl)cc4)CC3)cnn12`, the Ki was 0.0015 µM on D(4) dopamine receptor [3]; 45 µM at D(2) dopamine receptor [1]; 0.18 µM in assay [6]; 26 µM at D(3) dopamine receptor; 44 µM on D(2) dopamine receptor [7]. This compound also returned an Intrinsic activity in assay [4] of 31%. This compound also registered an EC50 at D(4) dopamine receptor [5] of 0.0015 µM.

On to `Cc1nn2c(C#N)cccc2c1CN1CCN(c2ccc(Cl)cc2)CC1`, for which the Ki on D(4) dopamine receptor [3] was 0.0023 µM; at D(2) dopamine receptor [1], 58 µM; in assay [6], 1 µM; at D(3) dopamine receptor it was 21 µM; at D(2) dopamine receptor [7], 59 µM. Besides, the Intrinsic activity in assay [4] came to 26%. Moreover, a half-maximal response on D(4) dopamine receptor [5] (EC50) required 0.012 µM.

As to `Clc1ccc(N2CCN(Cc3cnn4c(N5CCN(Cc6ccccc6)CC5)cccc34)CC2)cc1`, the Ki on D(4) dopamine receptor [3] was determined as 0.18 µM; at D(2) dopamine receptor [1], 0.4 µM; at D(2) dopamine receptor [2] it was 0.64 µM; on D(3) dopamine receptor it was 0.41 µM.

Turning to `O=Cc1cccc2c(CN3CCN(c4ccc(Cl)cc4)CC3)cnn12`, the Ki was 0.0026 µM at D(4) dopamine receptor [3], 9.2 µM at D(2) dopamine receptor [1], 9.5 µM at D(2) dopamine receptor [2] and 5.9 µM at D(3) dopamine receptor.

Consider `OCc1cccn2ncc(CN3CCN(c4ccc(Cl)cc4)CC3)c12`, for which the Ki at D(4) dopamine receptor [3] is 0.11 µM; on D(2) dopamine receptor [1], 79 µM; at D(2) dopamine receptor [2], 56 µM; on D(3) dopamine receptor, more than 100 µM.

On to `OCc1ccc2c(CN3CCN(c4ccc(Cl)cc4)CC3)cnn2c1`, for which the Ki on D(4) dopamine receptor [3] is 0.02 µM; at D(2) dopamine receptor [1], 22 µM; at D(2) dopamine receptor [2], 28 µM; at D(3) dopamine receptor, 2.6 µM.

With `Cc1cccc2c(CN3CCN(c4ccc(Cl)cc4)CC3)cnn12`, the values for the Ki on D(2) dopamine receptor [1], on D(2) dopamine receptor [2] and at D(3) dopamine receptor were 5 µM, 4.9 µM and 3.8 µM, respectively.

Take `Cc1nn2c(N3CCN(Cc4ccccc4)CC3)cccc2c1CN1CCN(c2ccc(Cl)cc2)CC1`: the Ki on D(4) dopamine receptor [3] was determined as 0.026 µM; at D(2) dopamine receptor [1], 0.12 µM; at D(2) dopamine receptor [2] it was 0.3 µM; on D(3) dopamine receptor it was 0.27 µM.

As for `Fc1ccc(-c2cccc3c(CN4CCN(c5ccc(Cl)cc5)CC4)cnn23)cc1`, the Ki is 0.029 µM at D(4) dopamine receptor [3], 15 µM at D(2) dopamine receptor [1], 15 µM on D(2) dopamine receptor [2] and 5.7 µM at D(3) dopamine receptor.

On to `C[Si](C)(C)c1cccc2c(CN3CCN(c4ccc(Cl)cc4)CC3)cnn12`, for which the Ki on D(4) dopamine receptor [3] came out at 0.0028 µM; at D(2) dopamine receptor [1], 2.8 µM; on D(2) dopamine receptor [2], 3.1 µM; at D(3) dopamine receptor, 2 µM.

As to `Cc1nn2c(-c3ccc(F)cc3)cccc2c1CN1CCN(c2ccc(Cl)cc2)CC1`, the Ki at D(4) dopamine receptor [3] stood at 0.087 µM; on D(2) dopamine receptor [1], 16 µM; on D(2) dopamine receptor [2], 14 µM; at D(3) dopamine receptor, 3.8 µM.

Consider `C#Cc1cccc2c(CN3CCN(c4ccc(Cl)cc4)CC3)c(C)nn12`, for which the inhibitory constant (Ki) was found to be 0.0015 µM at D(4) dopamine receptor [3], 25 µM at D(2) dopamine receptor [1], 21 µM on D(2) dopamine receptor [2] and 17 µM at D(3) dopamine receptor.

For `Clc1ccc(N2CCN(Cc3cnn4c(-c5ccccc5)cccc34)CC2)cc1`, the Ki was 0.0076 µM at D(4) dopamine receptor [3], 2.8 µM at D(2) dopamine receptor [1], 5.4 µM on D(2) dopamine receptor [2] and 0.84 µM at D(3) dopamine receptor.

The values are drawn from ChEMBL document CHEMBL1135071, “Di- and trisubstituted pyrazolo[1,5-a]pyridine derivatives: synthesis, dopamine receptor binding and ligand efficacy” (Bioorg Med Chem Lett, 2002).
